One test has as its target T1, BMPR-II (Homo sapiens, UniProt Q13873).
T1 sequence (Q13873 27-1038): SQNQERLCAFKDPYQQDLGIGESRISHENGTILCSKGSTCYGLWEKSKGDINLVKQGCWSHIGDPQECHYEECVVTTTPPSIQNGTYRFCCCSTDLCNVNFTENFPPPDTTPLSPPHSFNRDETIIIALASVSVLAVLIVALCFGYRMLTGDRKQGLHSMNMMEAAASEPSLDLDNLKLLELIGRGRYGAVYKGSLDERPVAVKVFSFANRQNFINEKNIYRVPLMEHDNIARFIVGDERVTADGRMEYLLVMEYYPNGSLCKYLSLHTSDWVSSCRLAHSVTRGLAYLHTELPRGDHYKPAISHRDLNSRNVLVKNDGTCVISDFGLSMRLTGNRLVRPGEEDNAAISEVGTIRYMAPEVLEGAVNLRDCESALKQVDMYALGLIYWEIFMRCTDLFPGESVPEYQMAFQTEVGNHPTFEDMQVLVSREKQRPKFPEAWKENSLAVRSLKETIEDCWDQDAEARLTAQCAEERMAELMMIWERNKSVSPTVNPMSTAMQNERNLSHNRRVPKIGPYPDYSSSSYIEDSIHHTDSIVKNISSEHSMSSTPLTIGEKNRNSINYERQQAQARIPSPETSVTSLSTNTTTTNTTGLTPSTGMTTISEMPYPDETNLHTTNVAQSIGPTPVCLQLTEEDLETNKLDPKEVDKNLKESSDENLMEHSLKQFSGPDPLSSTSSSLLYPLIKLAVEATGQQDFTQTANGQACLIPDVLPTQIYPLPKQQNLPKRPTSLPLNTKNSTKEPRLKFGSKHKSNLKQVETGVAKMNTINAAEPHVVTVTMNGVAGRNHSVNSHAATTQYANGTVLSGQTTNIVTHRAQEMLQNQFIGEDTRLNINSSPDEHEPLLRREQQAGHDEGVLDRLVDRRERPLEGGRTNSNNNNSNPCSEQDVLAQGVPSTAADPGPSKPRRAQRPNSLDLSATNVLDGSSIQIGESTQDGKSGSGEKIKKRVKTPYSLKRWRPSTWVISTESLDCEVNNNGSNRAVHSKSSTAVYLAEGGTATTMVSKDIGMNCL
Put plainly: BMP type II receptor binding. From the text: (§1) FIG. 31 provides a table indicating a comparison between THR-123 (SEQ ID NO: 1) and BMP-7 for binding to Type I and Type II BMP receptors. Like BMP-7, THR-123 binds to both ALK2 and ALK3 (type I) and BMPR-II (type II) BMP receptors. However, BMP-7, but not THR-123 binds to ALK6 (type I) receptor.

A further test concerns the target T2, ALK2 (Homo sapiens, UniProt Q04771).
T2 sequence (Q04771 21-123 limits assumed): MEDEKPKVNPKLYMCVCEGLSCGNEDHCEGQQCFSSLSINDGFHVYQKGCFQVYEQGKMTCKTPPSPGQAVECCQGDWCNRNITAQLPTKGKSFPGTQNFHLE
Kind of test: BMP type I receptor binding, ALK2 ECD. The procedure: as §1
First, specific affinity of the extra cellular domains (ECD) of the several type I receptors of BMPs to THR-123 was analyzed. Binding of cold BMP7 to immobilized receptor ECDs was determined by competition with ^125I-labeled BMP7 and analyzed by Scatchard analysis to determine effective dissociation constants of BMP7 for each of the receptor ECDs. To obtain an estimate of the effective dissociation constant of THR-123 for a particular receptor ECD, the dissociation constant for cold BMP7 was multiplied by the ratio of the ED50 of THR-123 to the ED50 for cold BMP7.

Test [1] deals with Streptozotocin-induced diabetic CD-1 mice. Kind of test: STZ-induced diabetic nephropathy study (THR-123 month 5-6, BMP-7 month 1-6). In kind it is in vivo. The note with it: for net increase in FSP1 (mesenchymal tissue) at six months versus normal animals: BMP7 five months, SEQ ID NO: 1 final month, untreated 27 and 29 times; for interstitial fibrosis (collagen accumulation, Masson's trichrome): THR-123 5 mg/kg/day oral; for increase in BUN level relative to normal animals: untreated 85% at 5 months, 94% at 6 months. The procedure: FIG. 17 depicts the STZ experimental protocol behind the study discussed in Example 2. […] Mice were given a single intraperitoneal injection of Streptozotocin (STZ) in sodium citrate buffer (pH 4.5) at a dose of 200 mg/kg. Blood glucose was measured by tail vein sampling using the glucose oxidase enzymatic test (Medisense glucometer, Abbott Laboratories, Bedford, Mass.). Diabetic nephropathy was evaluated in groups of mice killed at the end of 5 or 6 months (vehicle control groups) or 6 months (THR123 or BMP-7 group) after STZ injection. A group of STZ injected mice received oral administration of Thrasos compound daily at a dose of 5 mg/kg body weight for a month, from month 5 to month 6 after STZ injection. BMP-7 was administered intraperitoneally at a dose of 300 μg/kg body weight from month 1 to month 6.
Analysis of fibrosis in the H&E and Masson's trichrome stain in FIG. 18 through 22 from the mouse STZ study outlined in FIG. 17. Using the same image color analysis method used above to quantitate E-cadherin fluorescence for the in vitro EMT experiments, the images were quantitated, and the results shown in FIG. 23.
Eight weeks old male CD-1 mice are used all the diabetic experiment. Mice are performed single intraperitoneal (i.p.) injection of streptozotocin (STZ: 200 mg/Kg). Induction of diabetes is defined as blood glucose level >16 mM by 2 weeks after STZ injection. One month after induction of diabetes, mice were separated into three groups (BMP7, vehicle and non-treatment) and BMP7 (i.p. 300 μg/Kg/every other day) or vehicle injection was initiated. Five months after induction of diabetes, THR-123 (p.o. 5 mg/Kg/day) administration is initiated in diabetic mice. Mice are sacrificed at 5 (before the treatment) or 6 months after induction of diabetes.

Setting [2] is: THR-123 month 5-6, BMP-7 month 1-6.
The mark [3] stands for this setting: THR-123 month 5-6, BMP-7 month 1-6, listed as THR-123.

The source of these data is patent publication US20160058829A1, “ANTI-FIBROTIC PEPTIDES AND THEIR USE IN METHODS FOR TREATING DISEASES AND DISORDERS CHARACTERIZED BY FIBROSIS” (Thrasos Innovation, Inc., priority 2011, published 2016).

“Also recorded” adds a separate entry of the source. Read-outs that look alike come from different tables or passages of the source. Positions of bridges follow the written chain, without caps; N, C: chain ends.

For “(H)-CYFDDSSNVLCKKYRS-(OH) (H-CYFDDSSNVLCKKYRS-OH; disulfide 1-11; SMILES CC(C)C[C@@H]1NC(=O)[C@H](C(C)C)NC(=O)[C@H](CC(N)=O)NC(=O)[C@H](CO)NC(=O)[C@H](CO)NC(=O)[C@H](CC(=O)O)NC(=O)[C@H](CC(=O)O)NC(=O)[C@H](Cc2ccccc2)NC(=O)[C@H](Cc2ccc(O)cc2)NC(=O)[C@@H](N)CSSC[C@@H](C(=O)N[C@@H](CCCCN)C(=O)N[C@@H](CCCCN)C(=O)N[C@@H](Cc2ccc(O)cc2)C(=O)N[C@@H](CCCNC(=N)N)C(=O)N[C@@H](CO)C(=O)O)NC1=O) [SEQ ID NO: 1]”, the “binding to BMPR-II” value with BMPR-II is recorded as “binds”. For the same molecule, the “binding to ALK2” value in the test with ALK2 (listed as THR-123) is on record as “to a small extent; also recorded: binds”. For the same molecule, in test [1], the “net increase in FSP1 (mesenchymal tissue) at six months versus normal animals” value is recorded as 2 times and the “increase in BUN level relative to normal animals” value worked out at 17%. Also, the “interstitial fibrosis (collagen accumulation, Masson's trichrome)” value in test [1] (month 5 to 6, listed as THR123, 5 mg/kg/day) is on record as “reduced renal fibrosis”. In addition, the “interstitial fibrosis (collagen accumulation, Masson's trichrome)” value in test [1] (month 5 to 6, listed as THR-123, 5 mg/kg/day) was “lower than it was at 5 months; also recorded: markedly reduced”. Besides, the glomerular surface area result in test [1] (setting [2]) is reported as “little effect”. Also, the relative interstitial volume result in test [1] (THR-123 month 5-6, BMP-7 month 1-6, listed as THR123) is given as “decreased interstitial volume”. In test [1] (setting [3]), the “BUN levels / renal function” value is listed as “reversed renal dysfunction; also recorded: dropped to those of control animals”; the “damaged tubules / tubular atrophy” value was “inhibited tubular atrophy and interstitial volume increase; also recorded: reversed tubular atrophy and interstitial volume expansion; also recorded: markedly reduced”; the mesangial matrix expansion result was “inhibited mesangium expansion; also recorded: reversed mesangial matrix expansion; also recorded: significantly reduced”; the relative interstitial volume entry is listed as “markedly reduced”. For the same molecule, in test [1] (mouse, in vivo), the “EMT program (FSP1 and E-cadherin double positive tubules)” value is given as “inhibited EMT program”; the “macrophage infiltration (Mac-1)” value is “significantly reduced the infiltration by macrophages”; the “phospho-Smad1/5 accumulation in kidney” value is given as “increased accumulation of phospho-Smad1/5”. The “FSP-1 marker concentration relative to levels at 5 and 6 months” value in test [1] (one month treatment, month 5 to 6) is given as “less than 1/10”. Also, the “increase in mesangial matrix at 6 months” value in test [1] (untreated 64% at 5 months, 104% at 6 months) was 37%. Also, the “increase in BUN level relative to normal animals” value in test [1] (listed as THR-123) is recorded as 12%.

B1: BMP-7: bone morphogenetic protein-7; recombinant human BMP7, positive control (protein)
chain: STGSKQRSQNRSKTPKNQEALRMANVAENSSSDQRQACKKHELYVSFRDLGWQDWIIAPEGYAAYYCEGECAFPLNSYMNATNHAIVQTLVHFINPETVPKPCCAPTQLNAISVLYFDDSSNVILKKYRNMVVRACGCH
Consider B1, for which the “binding to BMPR-II” value with BMPR-II is given as “binds”. Further, the “binding to ALK2” value with ALK2 is “binds”. Moreover, in test [1], the “net increase in FSP1 (mesenchymal tissue) at six months versus normal animals” value was found to be 3 times and the “increase in BUN level relative to normal animals” value is reported as 2%. Besides, in test [1] (setting [2]), the “BUN levels / renal function” value is given as “reversed renal dysfunction; also recorded: dropped to those of control animals”; the “damaged tubules / tubular atrophy” value was “inhibited tubular atrophy and interstitial volume increase”; the mesangial matrix expansion entry is recorded as “inhibited mesangium expansion; also recorded: significantly reduced”; the relative interstitial volume entry is “markedly reduced”. Further, the “damaged tubules / tubular atrophy” value in test [1] (THR-123 month 5-6, BMP-7 month 1-6, listed as BMP) was “halts the progression”. Moreover, the mesangial matrix expansion entry in test [1] (THR-123 month 5-6, BMP-7 month 1-6, listed as BMP7) is “unaffected”. Moreover, in test [1] (mouse, in vivo), the “EMT program (FSP1 and E-cadherin double positive tubules)” value was “inhibited EMT program”; the “macrophage infiltration (Mac-1)” value is “significantly reduced the infiltration by macrophages”.
